Test results from US4314999A, “N-Acyl derivatives of glucosamine having antitumor chemotherapeutic acitivity” (Proter S.p.A., priority 1980, dated 1982).

System: Leukemia L 1210
Assay: Survival (MST, ILS, T/C%) of mice inoculated i.p. with Leukemia L 1210, compound given orally
Assay type: in vivo
Set-up: Increase in Life Span (ILS): unit not given here
Conditions: for Survivors: of 10 mice
Procedure: The chemotherapeutic activity of the compound ethyl-D-glucosamyl-L-aspartoyl(β-ethoxy)-D-glucosamyl)m-di(2-chloroethylamino)-L-phenylalanyl-p-fluoro-L-phenylalanine was evaluated by conducting trials on mice injected with cells of Leukemia 1210 according to the procedure established in Cancer Chemotherapy Reports 1972, Vol. 3, No. 2: Protocols for Screening Chemical Agents and Natural Products Against Animal Tumors and other Biological Systems (Third Edition, National Cancer Institute, Bethesda, Maryland. The experimental model employed for the evaluation is:
Determination of the MST (Mean Survival Time) of BDGI mice inoculated intraperitoneally with 10^5 cells of lymphoid Leukenia L 1210 deriving from regular implants in DBA2 mice. The MST was determined both on the controls and on the animals treated, and thereafter an evaluation was made of the ILS (Increased Life Span) according to Cancer Chemotherapy Reports 1972, Vol. 3, No. 2 (Protocols for Screening Chemical Agents and Natural Products Against Animal Tumors and other Biological Systems--Third Edition, National Cancer Institute, Bethesda, Maryland). In this case, the compounds were tested only after oral administration starting from the 3rd day after implant of the tumor and continuing on the 17th, 25th and 35th day. On the 52nd day, any surviving animals were sacrificed and the experiment discontinued and evaluated.
The formula for the calculation of mean survival time is: [formula] wherein Day A=Day on which deaths are no longer considered due to drug toxicity - For Leukemia L 1210 day A=day 6
Day B=This day cannot be considered here because all control animals died within the 11th day and survivors were not observed.
S=The total of survivors from 6th day onwards
S(A-1)=Number of survivors at the end of day 5 (A-1)=S5
The ILS and the ratio T/C% are calcuated as follows: […]

[1] = Table, oral 25, 15, 10, 5 mg/Kg on days 3, 17, 25, 35, L 1210 mice

**Q.** What does the source list for “Ethyl-D-glucosamyl-L-aspartoyl(β-ethoxy)-D-glucosamyl-m-di-(2-chloroethyl)amino-L-phenylalanyl-p-fluoro-phenylalanine”?
**A.** I.L.S. [1]: 186.4; M.S.T. [1]: 32.7; T/C % [1]: 311.4%; Survivors (day 3 from inoculum, oral 25 mg/Kg given this day): 10; Survivors (day 4 from inoculum): 10; Survivors (day 5 from inoculum): 10; Survivors (day 6 from inoculum): 10; Survivors (day 7 from inoculum): 10; Survivors (day 8 from inoculum): 10; Survivors (day 9 from inoculum): 10; Survivors (day 10 from inoculum): 10; Survivors (day 11 from inoculum): 10; Survivors (day 12 from inoculum): 10; Survivors (day 13 from inoculum): 10; Survivors (day 14 from inoculum): 10; Survivors (day 15 from inoculum): 10; Survivors (day 16 from inoculum): 10; Survivors (day 17 from inoculum, oral 15 mg/Kg given this day): 10; Survivors (day 18 from inoculum): 10; Survivors (day 19 from inoculum): 8; Survivors (day 20 from inoculum): 8; Survivors (day 21 from inoculum): 6; Survivors (day 22 from inoculum): 6; Survivors (day 23 from inoculum): 6; Survivors (day 24 from inoculum): 6; Survivors (day 25 from inoculum, oral 10 mg/Kg given this day): 6; Survivors (day 26 from inoculum): 6; Survivors (day 27 from inoculum): 6; Survivors (day 28 from inoculum): 6; Survivors (day 29 from inoculum): 6; Survivors (day 30 from inoculum): 5; Survivors (day 31 from inoculum): 5; Survivors (day 32 from inoculum): 5; Survivors (day 33 from inoculum): 5; Survivors (day 34 from inoculum): 4; Survivors (day 35 from inoculum, oral 5 mg/Kg given this day): 4; Survivors (day 36 from inoculum): 4; Survivors (day 37 from inoculum): 4; Survivors (day 38 from inoculum): 4; Survivors (day 39 from inoculum): 4; Survivors (day 40 from inoculum): 3; Survivors (day 41 from inoculum): 3; Survivors (day 42 from inoculum): 2; Survivors (day 43 from inoculum): 2; Survivors (day 44 from inoculum): 2; Survivors (day 45 from inoculum): 2; Survivors (day 46 from inoculum): 2; Survivors (day 47 from inoculum): 2; Survivors (day 48 from inoculum): 2; Survivors (day 49 from inoculum): 1; Survivors (day 50 from inoculum): 1; Survivors (day 51 from inoculum): 1; Survivors (day 52 from inoculum): 0; Mean Survival Time (MST) (ten mice, 10^5 L 1210 cells i.p., oral 25, 15, 10, 5 mg/kg on days 3, 17, 25, 35): 32.7 days; Increase in Life Span (ILS) (ten mice, 10^5 L 1210 cells i.p., oral 25, 15, 10, 5 mg/kg on days 3, 17, 25, 35, calculated as 311.4-125): 186.4; T/C% (MST of the treated group divided by the MST of the control group) (ten mice, 10^5 L 1210 cells i.p., oral 25, 15, 10, 5 mg/kg on days 3, 17, 25, 35, control MST 10.5): 311.4%
